According to a melting point compilation (Tetko et al.; mined from patent text by program, amines drawn as free bases though some values may be those of a salt):

With `OC1OC(Cn2cncn2)(c2ccc(Cl)cc2)c2ccccc21` (stereo unspecified) the melting point was 215 to 217 °C.
Work on `CCc1cc(Oc2ccc(NC(=O)Nc3ccc(C)cc3)cc2)ncn1` yielded a melting point of 160 to 162 °C.
`Cc1ccc(C)c2c1CN(NC(=S)NC(=O)c1ccccc1)C2` showed a melting point of 163 to 164 °C.
Compound `CCOC(=O)c1c(CC(=O)O)n(-c2ccc(OC(C)C)cc2)c2ccc(Oc3ncccc3C(N)=O)cc12` has a melting point of 210 to 212 °C.
For `CCOC(=O)CCCCN(C(=O)c1ccc(Cl)cc1)c1cccc2ccccc12`, the melting point was 74 to 75 °C.
In the case of `NS(=O)(=O)c1cccc(C2CC2)c1`, the melting point was 71.5 to 72.9 °C.
In the case of `O=C1CCC(N2Cc3c(OCc4cccc(CN5CCOCC5)c4)cccc3C2=O)C(=O)N1` (stereo unspecified), the melting point was 247 to 249 °C.
Compound `Nc1nc(-c2ccc(Cl)cc2)nc(N2CCCC2)n1` has a melting point of 217 to 219 °C.
Compound `COc1ccc(CN(CCCNc2ncc(Cc3ccc(C)nc3)c(=O)[nH]2)c2ccccn2)cc1` has a melting point of 90 to 98 °C.
With `O=C1N(Cc2nnc(-c3ccc(Cl)cc3)o2)c2ccccc2C12COc1cc3c(cc12)OCO3` (stereo unspecified) the melting point was 161 to 162 °C.
Compound `CCCOC1CCCC(C2NC(=O)C2C(C)O[Si](C)(C)C(C)(C)C)C1O` (stereo unspecified) has a melting point of 119 to 121 °C.
With `COc1ccc(S(=O)(=O)C(C)(Cc2ccc(Br)cc2)C(=O)NO)cc1` (stereo unspecified) the melting point was 86 to 88 °C.
For `CCOc1nn(-c2ccc(C(F)(F)F)cn2)cc1CCCOc1cccc(OC(C)(C)C(=O)O)c1`, the melting point was 120 to 121 °C.
For `C[C@@H]1N(C)C(C)(C)CO[C@@]1(O)c1cccc(Cl)c1`, the melting point was 128 to 129 °C.
In the case of `CCOC(=O)C=Cc1ccc([N+](=O)[O-])c(OC)c1`, the melting point was 119 to 120 °C.
`COC(=O)c1ccc(Oc2cccnc2)c(N)c1` gave a melting point of 101 °C.
Work on `Cc1cc(-c2nc(-c3cccs3)c[nH]2)ccc1O` yielded a melting point of 167 to 172 °C.
In the case of `O=C1C=CCC2=C3C(=CCN3C13COc1cc4c(cc13)OCO4)CCC2` (stereo unspecified), the melting point was 176 to 177 °C.
`COC(=O)[C@H](CO)NC(=O)c1ncn2c1CN(C)C(=O)c1sccc1-2` showed a melting point of 158 to 160 °C.
`N#CNC(=S)Nc1cccc(Cl)c1` showed a melting point of 258 to 260 °C.
Work on `Cc1noc(-c2cc(O)c(O)c([N+](=O)[O-])c2)n1` yielded a melting point of 201 to 202 °C.
With `CCCCCCCCCCN1C(=O)C2CC(c3ccc(N)cc3)(C2)C1=O` the melting point was 81.5 to 82.5 °C.
In the case of `CCN1C(=O)C(C(=O)Nc2cccc(C(=O)Nc3ccccc3)c2)c2cc(C(=O)c3ccccc3)ccc21` (stereo unspecified), the melting point was 129 to 135 °C.
`CCn1c(C(C)C)cc(-c2ccc(F)cc2)c1-c1ccccc1` gave a melting point of 110 °C.
`COCC1CN(c2ccc(C3CCCCC3)cc2)C(=O)O1` (racemic) showed a melting point of 86 to 88 °C.
`CSc1cc(Oc2cccc(C(F)(F)F)c2)nc(C(=O)NC(C)C)c1` gave a melting point of 66 to 69 °C.
With `N=C(NO)c1ccccc1-n1cnc2cnc3ccc(-c4ccccc4)cc3c21` the melting point was 249 to 251 °C.
With `COC(=O)c1ccccc1S(=O)(=O)NC(=O)Nc1nc(C)c(C)c(C)n1` the melting point was 152 to 161 °C.
Compound `CCCn1cc(-c2ccc3nnn(Cc4ccc5ncccc5c4)c3n2)cn1` has a melting point of 128 to 130 °C.
With `Cc1ccc([S@@](C)=O)cc1` the melting point was 75 to 76 °C.
In the case of `O=C(CC(=O)C(F)F)c1cccs1`, the melting point was 78 to 80 °C.
In the case of `CCC(C(C)=CC(CNC(=O)c1nc(C)[nH]c1C)=NO)[N+](=O)[O-]` (stereo unspecified), the melting point was 140 to 141 °C.
`O=C(O)CCCc1cc2nc(Cl)ccc2n1S(=O)(=O)c1ccc(OC(F)(F)F)cc1` gave a melting point of 168 °C.
In the case of `O=[N+]([O-])c1cccnc1Nc1ccccc1F`, the melting point was 97 °C.
For `Cc1ccc(Cl)c(Nc2ccccc2-c2n[nH]c(=S)[nH]2)c1Cl`, the melting point was 300 to 305 °C.
Work on `Cc1c(C(=O)Nc2ccc(N3CCN(C4CCOCC4)CC3)c(C#N)c2)cnn1-c1ccc(Cl)c(Cl)c1` yielded a melting point of 242 °C.
Work on `COC(=O)C1=CC(C(=O)c2cc(Br)cc(Br)c2O)=CN2CCc3c([nH]c4ccccc34)C12C(=O)OC` (stereo unspecified) yielded a melting point of 131 °C.
In the case of `COc1ccc(-c2ccc(=O)[nH]n2)cc1OC1CC2CCC1C2` (stereo unspecified), the melting point was 188 to 189 °C.
`Cc1ccc(NS(=O)(=O)c2cc(C)c3cc(C(C)C)ccc(C)c2-3)cc1` showed a melting point of 146 to 148 °C.
For `COc1c(Cl)ccc(Cl)c1C(=O)NO`, the melting point was 150 °C.
For `Cc1ccc(C2=NN(C(=O)c3cccnc3)CC2)cc1`, the melting point was 100 to 102 °C.
Work on `CCn1ncc(C(=O)c2ccc(S(C)(=O)=O)c(CO)c2Cl)c1O` yielded a melting point of 70 to 76 °C.
Work on `OC1(c2ccc(Br)cc2)c2ccccc2C2=NCCN21` (stereo unspecified) yielded a melting point of 194 to 196 °C.
Work on `CCOC(=O)CCc1csc2c(C(=O)OCC)c(=O)c3cc(F)c(Cl)cc3n12` yielded a melting point of 200 °C.
In the case of `COc1cc(OC)c([N+](=O)[O-])nc1N`, the melting point was 195 °C.
`CCc1[nH]nc2c1C(=O)c1c(NC(=O)CN3CCC(CN)CC3)cccc1-2` gave a melting point of 174 to 176 °C.
With `CS(=O)(=O)Nc1ccccc1C(=O)C1CCCCC1` the melting point was 119 to 120 °C.
`Nc1nc2ccc(OS(=O)(=O)c3ccc(F)cc3)cc2[nH]1` gave a melting point of 192 °C.
With `Nc1cc2nc(C(=O)O)c(=O)[nH]c2cc1[N+](=O)[O-]` the melting point was 300 °C.
`Cc1ccc(S(=O)(=O)ON=C2CCCc3occ(C(=O)O)c32)cc1` showed a melting point of 155 to 165 °C.
Work on `COc1cc2c(cc1OC)/C(=N/OCc1ccc([N+](=O)[O-])cc1)CC2` yielded a melting point of 139 to 144 °C.
